In patent publication US4937232A, “Inhibition of protein kinase C by long-chain bases” (priority 1988, dated 1990):
Read-outs that look alike come from different tables or passages of the source. Each block holds one compound with its values, some of them ahead of it.

Tests used:
[1] = tested on: HL-60 cells; assay: Acid phosphatase activities of suspended and attached HL-60 cells; assay type: cell-based, human
Protocol: (§1) Cells were centrifuged at 600 g for 3 min, and added at 1×10^5 cells per well in 12-well culture dishes. Medium, PMA, and long-chain bases (prepared as the 1:1 molar complex with fatty acid-free bovine serum albumin) at the indicated concentrations were added for a total volume of 2.0 ml. After the desired times, the cells in suspension were counted and checked for viability (trypan blue exclusion) with a hemacytometer. The attached cells were quantitated by measuring DNA content according to the method of West et al (Anal. Biochem., 147, 289-295, 1985) and by assaying for acid phosphatase according to the method of Schnyder (J. Exp. Med., 148, 434-445, 1978).

[2] = tested on: Ca++/calmodulin-dependent protein kinase; assay: Phosphorylation of the 20K protein in platelets; assay type: cell-based; conditions: concentrations which completely abolished phosphorylation of the 40K protein
[3] = tested on: HL-60 cells; assay: PMA-induced adherence (attachment) of HL-60 cells; assay type: cell-based, human; conditions: for Adherent cells (%): 72 h; for IC50: Homo sapiens
Protocol: as §1

[4] = tested on: human neutrophils; assay: Oxygen consumption (oxidative burst) of human neutrophils; assay type: cell-based; conditions: for IC50: Homo sapiens, Neutrophil
Text: Human neutrophils were obtained by continuous flow leukapheresis from normal adults. Residual erythrocytes were removed by hypotonic lysis with a resulting purity of >95% neutrophils. Alternatively peripheral blood was obtained by phlebotomy and neutrophils were isolated by HESPAN (6% Hetastarch, 0.9% NaCl) sedimentaion of erythrocytes, centrifugation through lymphocyte separation medium (9.4% sodium diatrizoate, 6.2% Ficoll), and hypotonic lysis of residual erythrocytes. Isolated cells were resuspended in phosphate buffered saline (PBS)-glucose, containing 0.6 mM CaCl2, 2.6 mM KCl, 1.5 mM KH2 PO4, 0.5 mM MgCl2, 136 mM NaCl, 8 mM Na2 HPO4, 5.5 mM glucose.
Oxygen consumption was measured using a Clark-type electrode with YSI model 53 oxygen monitor. Assays were conducted at 37° C. with 6.5×10^6 cells per ml with a total volume of either 2.5 ml or 4 ml. Effectors were injected into the electrode chamber using a Hamilton syringe. Initial slopes after the addition of the stimuli were used for rate calculations. For activators with a lag prior to the onset of the oxidative burst, maximal rates following the lag were used.

[5] = tested on: HL-60 cells; assay: Dioctanoylglycerol-induced attachment of HL-60 cells; assay type: cell-based; conditions: Homo sapiens
Protocol: When 1,2-dioctanoylglycerol was used, the cells were treated essentially as described by Ebling et al Proc. Natl. Acad. Sci. U.S.A. 82, 815-819, 1985. Sphinganine was added to the cells, then dioctanoylglycerol in 1 μl of ethanol to yield 100 μM, followed by additional maintenance additions of 20 μm diacylglycerol every 2 h for 12 h.

[6] = tested on: protein kinase C; assay: Triton X-100 mixed micellar assay for protein kinase C activity; assay type: biochemical, rat; conditions: for inhibition of protein kinase C (specificity): mixed micellar assay
Protocol: Protein kinase C was partially purified from rat brain as described by Hanrun et al (J. Biol. Chem., 260, 10043, 1985), which is hereby incorporated by reference.
Protein kinase C was assayed with Triton X-100 mixed micelles as described by Hanrun et al, (ibid.), Sphingosine was dried down with the lipid cofactors.

[7] = tested on: human platelets; assay: [3H]PDBu binding to human platelets
Protocol: Human platelets, prepared as described above, were suspended at a concentration of 2.5×10^8 platelet/ml. 50 μl of the platelets were then incubated for five minutes with the indicated concentration of sphingosine in Eppendorf microfuge tubes. Sphingosine was prepared in 50% ethanol at a concentration 100-fold the final concentration so that ethanol was kept at 0.5%. [^3 H]PDBu was added to 10 nM and incubated with the platelets at 37° for 10 minutes. The samples were then filtered on Whatman GF/C filters pre-washed with 5 ml of modified Tyrode's buffer containing 0.1% bovine serum albumin, washed with 10 ml of the same buffer, dried, and counted in 10 ml of Aquasol II in an LKB beta counter. Non-specific binding was determined in the presence of 1 μM unlabelled PDBu and subtracted from the total counts to yield the specific binding.

[8] = 8 nM PMA, 1 μM sphinganine, 24 h
[9] = 8 nM PMA, 1 μM sphinganine, 72 h
[10] = 8 nM PMA, 2.5 μM sphinganine, 24 h
[11] = 8 nM PMA, 2.5 μM sphinganine, 72 h
[12] = 8 nM PMA, 5 μM sphinganine, 24 h
[13] = 8 nM PMA, 5 μM sphinganine, 72 h
[14] = No PMA, 2.5 μM sphinganine, 24 h
[15] = No PMA, 2.5 μM sphinganine, 72 h
[16] = oxidative burst, PMA activation, read-out: Concentration required for 50% inhibition

- IC50 ([3]; HL-60, 8 nM PMA, read-out: 50% inhibition of PMA-induced attachment): 3 µM
- IC50 ([4]; activator PMA, read-out: half maximal inhibition of oxygen consumption): 6.7 µM
- IC50 ([4]; activator dioctanoylglycerol, read-out: half maximal inhibition of oxygen consumption): 7.4 µM
- IC50 ([4]; activator opsonized zymosan, read-out: half maximal inhibition of oxygen consumption): 5.6 µM
- IC50 ([4]; approximately 7.5×10^6 cells/ml, read-out: concentration for 50% inhibition, oxygen consumption assay): 6 to 8 µM
- IC50 [4, 16]: 7 µM
- IC50 ([5]; 100 μM dioctanoylglycerol, maintenance doses 20 μM every 2 h, read-out: concentration reducing dioctanoylglycerol-induced adherence by 50%): ~5 µM
- inhibition of protein kinase C (specificity) [6]: inhibitors
SMILES: CCCCCCCCCCCCCCC[C@@H](O)[C@@H](N)CO (relative stereo) [Sphinganine, erythro-dihydrosphingosine]
- Acid phosphatase activity, Adherent [1, 8]: 0.44 ± 0.11 nmol/h/dish
- Acid phosphatase activity, Suspended [1, 8]: 0.22 ± 0.07 nmol/h/dish
- Adherence (% of total) [1, 8]: 67 % of total
- Acid phosphatase activity, Adherent [1, 9]: 2.95 ± 0.62 nmol/h/dish
- Acid phosphatase activity, Adherent (%) [1, 9]: 98%
- Acid phosphatase activity, Suspended [1, 9]: 0.05 ± 0.01 nmol/h/dish
- Acid phosphatase activity, Adherent [1, 10]: 0.30 ± 0.04 nmol/h/dish
- Acid phosphatase activity, Suspended [1, 10]: 0.49 ± 0.28 nmol/h/dish
- Adherence (% of total) [1, 10]: 38 % of total
- Acid phosphatase activity, Adherent [1, 11]: 3.10 ± 0.30 nmol/h/dish
- Acid phosphatase activity, Adherent (%) [1, 11]: 98%
- Acid phosphatase activity, Suspended [1, 11]: 0.06 nmol/h/dish
- Acid phosphatase activity, Adherent [1, 12]: 0.14 ± 0.04 nmol/h/dish
- Adherence (% of total) [1, 12]: 21 % of total
- Acid phosphatase activity, Adherent [1, 13]: 0.82 ± 0.38 nmol/h/dish
- Acid phosphatase activity, Adherent (%) [1, 13]: 87%
- Acid phosphatase activity, Suspended [1, 13]: 0.12 ± 0.08 nmol/h/dish
- Acid phosphatase activity, Adherent ([1]; No PMA, 1 μM sphinganine, 24 h): 0.06 ± 0.03 nmol/h/dish
- Acid phosphatase activity, Suspended ([1]; No PMA, 1 μM sphinganine, 24 h): 1.53 ± 0.01 nmol/h/dish
- Adherence (% of total) ([1]; No PMA, 1 μM sphinganine, 24 h): 4 % of total
- Acid phosphatase activity, Adherent ([1]; No PMA, 1 μM sphinganine, 72 h): 0.05 ± 0.03 nmol/h/dish
- Acid phosphatase activity, Adherent (%) ([1]; No PMA, 1 μM sphinganine, 72 h): 2%
- Acid phosphatase activity, Suspended ([1]; No PMA, 1 μM sphinganine, 72 h): 2.77 ± 0.25 nmol/h/dish
- Acid phosphatase activity, Adherent [1, 14]: 0.06 ± 0.02 nmol/h/dish
- Acid phosphatase activity, Suspended [1, 14]: 1.25 ± 0.16 nmol/h/dish
- Adherence (% of total) [1, 14]: 5 % of total
- Acid phosphatase activity, Adherent [1, 15]: 0.05 ± 0.02 nmol/h/dish
- Acid phosphatase activity, Adherent (%) [1, 15]: 2%
- Acid phosphatase activity, Suspended [1, 15]: 2.35 ± 0.11 nmol/h/dish
- Acid phosphatase activity, Adherent ([1]; No PMA, 5 μM sphinganine, 24 h): 0.04 ± 0.01 nmol/h/dish
- Acid phosphatase activity, Suspended ([1]; No PMA, 5 μM sphinganine, 24 h): 0.91 ± 0.16 nmol/h/dish
- Adherence (% of total) ([1]; No PMA, 5 μM sphinganine, 24 h): 4 % of total
- Acid phosphatase activity, Adherent ([1]; No PMA, 5 μM sphinganine, 72 h): 0.04 ± 0.01 nmol/h/dish
- Acid phosphatase activity, Adherent (%) ([1]; No PMA, 5 μM sphinganine, 72 h): 14%
- Acid phosphatase activity, Suspended ([1]; No PMA, 5 μM sphinganine, 72 h): 0.24 ± 0.01 nmol/h/dish
- inhibition of phosphorylation of the 20K protein in platelets [2]: lack of inhibition
- % Adherence ([3]; 8 nM PMA + 1 μM sphinganine, 24 h): 26%
- % Adherence ([3]; 8 nM PMA + 1 μM sphinganine, 24 h, listed as Sa): 25.5 ± 7.7%
- Adherence ([3]; 8 nM PMA + 2.5 μM sphinganine): 17.6±6.4%
- Adherence ([3]; 8 nM PMA + 5 μM sphinganine): 15.0±2.1%
- number of adherent cells ([3]; 8 nM PMA plus 1 μM sphinganine, 24 h): 0.51 ×10^5
- Adherent cells (%) ([3]; 8 nM PMA, 1 μM sphinganine): 85%
- Adherent cells (%) ([3]; 8 nM PMA, 2.5 μM sphinganine): 74%
- Adherent cells (%) ([3]; 8 nM PMA, 5 μM sphinganine): 70%
- % Adherence ([3]; 1 μM sphinganine, no PMA, 24 h): 3.7 ± 0.7%
- Adherent cells (%) ([3]; No PMA, 1 μM sphinganine): 9%
- Adherent cells (%) ([3]; No PMA, 2.5 μM sphinganine): 11%
- Adherent cells (%) ([3]; No PMA, 5 μM sphinganine): 6%
- PMA-induced oxygen consumption after washing out sphinganine ([4]; 40 μM sphinganine 5-10 min, then washed twice with 50 μM fatty acid-free BSA): 3.7 nmols/min/10^6 cells
- RATE of oxygen consumption, SPHINGANINE ([4]; 50 μM sphinganine 3 min before Arachidonate (83 μM)): 0.2 nmols O2 consumed/min/10^6 cells
- RATE of oxygen consumption, SPHINGANINE ([4]; 50 μM sphinganine 3 min before Dioctanoyl Glycerol (100 μM)): 0.3 nmols O2 consumed/min/10^6 cells
- RATE of oxygen consumption, SPHINGANINE ([4]; 50 μM sphinganine 3 min before FMLP (0.5 μM) + Cytochalasin B (5 μg/ml)): 0.3 nmols O2 consumed/min/10^6 cells
- RATE of oxygen consumption, SPHINGANINE ([4]; 50 μM sphinganine 3 min before Opsonized zymosan (30 μg/ml)): 0.3 nmols O2 consumed/min/10^6 cells
- RATE of oxygen consumption, SPHINGANINE ([4]; 50 μM sphinganine 3 min before Phorbol Myristate Acetate (1 μM)): 0.2 nmols O2 consumed/min/10^6 cells
- activation of the oxidative burst by A23187 ([4]; preliminary studies): blocked
- activity at 1 µM ([5]; 1.0 μM sphinganine, compared to cells treated with diacylglycerol only, read-out: % Viable cells attached): 70 ± 32%
- activity at 2.5 µM ([5]; 2.5 μM sphinganine, compared to cells treated with diacylglycerol only, read-out: % Viable cells attached): 63 ± 21%
- activity at 5 µM ([5]; 5.0 μM sphinganine, compared to cells treated with diacylglycerol only, read-out: % Viable cells attached): 50 ± 25%

SMILES: CCCCCCCCCCCCC/C=C/[C@@H](O)[C@@H](N)CO [sphingosine]
- inhibition of [3H]PDBu binding to whole human platelets [7]: able to inhibit this binding
- IC50 ([3]; HL-60, read-out: 50% inhibition of PMA-induced attachment): 1 µM
- IC50 [4, 16]: 9 µM
- Hill number of the PS dependence of protein kinase C activation ([6]; 2 mol % sphingosine): 6.9
- Hill number of the PS dependence of protein kinase C activation ([6]; 4 mol % sphingosine): 8.8
- type of inhibition with respect to diC18:1 ([6]; 6 mol % PS, 50 μM Ca2+, double reciprocal plots): competitive
- IC50 ([6]; Triton X-100 mixed micelles, 6 mol % PS, 2 mol % diC18:1, read-out: 50% inhibition of protein kinase C activity): 100 µM
- type of inhibition with respect to phorbol dibutyrate ([6]; double reciprocal plots): competitive inhibition
- type of inhibition with respect to Ca2+ ([6]; fixed PS and diC18:1, 3 and 4 mol % sphingosine): appeared competitive
- inhibition of protein kinase C (specificity) [6]: potent and reversible inhibitor
